Measurements published in PubChem BioAssay (NCI).
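Method: 48-hour compound exposure of cells in 96-well plates, five concentrations, linear interpolation of endpoints. GI50 marks 50% less growth. TGI is the concentration that stops growth completely.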

Assays:
Assay in all cases: NCI-60 cell line screen, 48 h
RPMI-8226 leukemia = tested on: RPMI-8226 leukemia
HOP-92 NSCLC = tested on: HOP-92 NSCLC
MDA-MB-435 = tested on: MDA-MB-435
OVCAR-4 ovarian = tested on: OVCAR-4 ovarian
TK-10 renal = tested on: TK-10 renal
KM12 colon = tested on: KM12 colon
HCT-116 colon = tested on: HCT-116 colon
DU-145 prostate = tested on: DU-145 prostate
EKVX NSCLC = tested on: EKVX NSCLC
NCI-H522 lung = tested on: NCI-H522 lung
NCI/ADR-RES ovarian = tested on: NCI/ADR-RES ovarian
ACHN renal = tested on: ACHN renal
MCF7 breast = tested on: MCF7 breast
MALME-3M melanoma = tested on: MALME-3M melanoma
COLO 205 colon = tested on: COLO 205 colon
T-47D breast = tested on: T-47D breast
CAKI-1 renal = tested on: CAKI-1 renal
OVCAR-5 ovarian = tested on: OVCAR-5 ovarian
OVCAR-8 ovarian = tested on: OVCAR-8 ovarian
M14 melanoma = tested on: M14 melanoma
HS 578T breast = tested on: HS 578T breast
SK-OV-3 ovarian = tested on: SK-OV-3 ovarian
SF-295 CNS = tested on: SF-295 CNS
HT29 colon = tested on: HT29 colon
NCI-H226 lung = tested on: NCI-H226 lung
UACC-257 melanoma = tested on: UACC-257 melanoma
NCI-H23 lung = tested on: NCI-H23 lung

## Fc1cc(-c2csc3n[nH]c(=S)n23)c(Cl)cc1Cl
RPMI-8226 leukemia
  GI50: 23.5 µM
  TGI: > 100 µM
HOP-92 NSCLC
  GI50: 21.1 µM
  TGI: 55.3 µM
MDA-MB-435
  GI50: 55.8 µM
  TGI: > 100 µM
OVCAR-4 ovarian
  GI50: 27.7 µM
  TGI: 73.9 µM
TK-10 renal
  GI50: 38.5 µM
  TGI: > 100 µM
KM12 colon
  GI50: 32.6 µM
  TGI: > 100 µM
HCT-116 colon
  GI50: 27.3 µM
  TGI: 88.8 µM
DU-145 prostate
  GI50: 32.5 µM
  TGI: > 100 µM
EKVX NSCLC
  GI50: 21.1 µM
  TGI: 66 µM
NCI-H522 lung
  GI50: 39.2 µM
  TGI: > 100 µM
NCI/ADR-RES ovarian
  GI50: 37.6 µM
  TGI: > 100 µM
ACHN renal
  GI50: 23.7 µM
  TGI: 57.5 µM
MCF7 breast
  GI50: 48.4 µM
  TGI: > 100 µM
MALME-3M melanoma
  GI50: 41.1 µM
  TGI: > 100 µM
COLO 205 colon
  GI50: 41.7 µM
  TGI: > 100 µM
T-47D breast
  GI50: 53.3 µM
  TGI: > 100 µM
CAKI-1 renal
  GI50: 33 µM
  TGI: > 100 µM
OVCAR-5 ovarian
  GI50: 41 µM
  TGI: > 100 µM
OVCAR-8 ovarian
  GI50: 44.5 µM
  TGI: > 100 µM
M14 melanoma
  GI50: 39.9 µM
  TGI: > 100 µM
HS 578T breast
  GI50: 28.8 µM
  TGI: 92.7 µM
SK-OV-3 ovarian
  GI50: 35.6 µM
  TGI: > 100 µM
SF-295 CNS
  GI50: 17.8 µM
  TGI: 50.5 µM
HT29 colon
  GI50: 65.8 µM
  TGI: > 100 µM
NCI-H226 lung
  GI50: 19.6 µM
  TGI: 59.7 µM
UACC-257 melanoma
  GI50: 93.5 µM
  TGI: > 100 µM
NCI-H23 lung
  GI50: 23.5 µM
  TGI: 78.8 µM
